In paper PMC6804243, “Small-Molecule Inhibition of UBE2T/FANCL-Mediated Ubiquitylation in the Fanconi Anemia Pathway” (ACS Chemical Biology, 2019):
“Also recorded” adds a separate entry of the source.

Tests used:
UBE2D1 / GST-FANCLRING = tested on: T1, UBE2D1 / GST-FANCLRING; assay: Gel-based ubiquitylation assay, E2 = UBE2D1, E3 = GST-FANCLRING; format: biochemical; conditions: 30 min at 37 °C, Western blot
T1 construct: the RING domain (residues 275–375) of the E3 FANCL (FANCLRING); His6 (N); made in house; host or cells: E. coli Rosetta (DE3)
Protocol: Figure 2 Gel-based ubiquitylation assays with confirmed HTRF hits. […] Western blots (WB) probed for GST or biotin as labeled. Reactions contained 20 nM His6-UBE1, 50 nM E2, 250 nM GST-E3, 500 nM biotinylated ubiquitin: (a) E2 = UBE2T, E3 = GST-FANCLRING, 30 min of reaction at 37 °C; (b) E2 = UBE2D1, E3 = GST-FANCLRING, 30 min of reaction at 37 °C; and (c) E2 = UBE2D1, E3 = GST-RNF8, 10 min of reaction at 37 °C.
In order to explore the selectivity of CU1, CU2, CU9, CU10, and CU12, we conducted a counter-screen against other E2 and E3 combinations. Since members of the UBE2D family of E2s are known to ubiquitylate multiple substrates in vitro,[13] a ubiquitylation assay featuring UBE2D1 and GST-FANCLRING was performed. With UBE2D1, multiple ubiquitylated GST-FANCLRING species could be observed (Figure 2b).
Purified protein was concentrated using a Vivaspin-6 concentrator with a 10 kDa MW cut-off (Vivascience) and flash-frozen in small aliquots for storage at […]
Cy5 labelling of ubiquitin. To a 5 mg/mL solution of recombinant human ubiquitin (Boston Biochem) in 0.1 M NaHCO3 pH 8.3, was added a 4-fold molar excess of Cyanine5 NHS ester (Lumiprobe). The reaction was incubated at 23 °C for 4 hours in the dark. The protein was separated from unreacted dye by passage through a PD-10 desalting column (GE Healthcare) equilibrated with PBS. Purified protein was concentrated using a Vivaspin-6 concentrator with a 3 kDa MW cut-off (Vivascience) and flash-frozen in small aliquots for storage […]
Homogeneous Time-Resolved Fluorescence (HTRF) Assay. GST-FANCLRING (200 nM) was incubated with anti-GST Tb (CisBio, #61GSTTL) (2.5 ng final) at room temperature for 30 minutes in assay buffer (50 mM Tris-HCl pH 8.0, 1 mM TCEP, 5 mM MgCl2, 0.005% Tween-20). Meanwhile, 10 μL of UBE2T in assay buffer (or assay buffer alone for no enzyme controls) was incubated in a white 384-well plate (Corning) with 20 nL DMSO or compound in DMSO. After 30 minutes, the GST-RINGRING solution was added to an equal volume solution containing His-UBE1 (Boston Biochem) (16 nM), Cy5-ubiquitin (400 nM), ATP (0.8 mM) in assay buffer. 10 μL of this solution was immediately added to each well of the 384 -well plate containing UBE2T or buffer. F inal concentrations: His -UBE1 (4 nM), UBE2T (6 nM), GST -RINGRING (50 nM), Cy5-ubiquitin (100 nM), ATP (0.2 mM), compound (10 or 20 μM) in 0.1 %
(v/v) DMSO. After a 10 minute incubation at 23 °C, 5 µL of a 50 mM EDTA solution were added to each well to stop the reaction. Signal was measured at λEx 340 nm and λEm 665 nm and 620 nm using a PHERAstar FS plate reader
(BMG Labtech). A ratio was calculated as [λEm(665)/λEm(620)] × 104 for each well and this was used to determine the percent inhibition for test compounds.
Gel-based ubiquitylation assays. Assays were carried out in a total volume of 10 µL containing 20 nM His6-UBE1 (Boston Biochem), 50 nM UBE2T, 250 nM GST-E3 and 500 nM biotinylated ubiquitin (Boston Biochem) in buffer (50 […]
Reaction mixtures were incubated for the indicated time at 37 °C and stopped by the addition of 2X reducing SDS -PAGE sample buffer, separated on NuPAGE Novex 4 –12% Bis/Tris gradient gels (Invitrogen) and visualized by Western blotting using the indicated antibodies (Table S3).
Cell culture. […]

UBE2T = tested on: T2, UBE2T; assay: Gel-based ubiquitylation assay (UBE2T/GST-FANCLRING), blot probed for UBE2T; format: biochemical; conditions: compound 100 μM, Western blot probed for UBE2T
T2 construct: His6 (N); made in house; host or cells: E. coli Rosetta (DE3)

Structure (SMILES)	ubiquitylation of GST-FANCLRING (UBE2D1 / GST-FANCLRING)	ubiquitylation of UBE2T (UBE2T)	ubiquitylation of UBE2T (UBE2T; listed as 2)	ubiquitylation of UBE2T (UBE2T; listed as 9)	ubiquitylation of UBE2T (UBE2T; listed as 12)
NCCN1C(=O)CC[C@H]2CN(Cc3cccc(-c4ccco4)c3)CC[C@H]21 [CU1]	essentially abolished the ubiquitylation of GST-FANCLRING	did not affect ubiquitylation of either UBE2T or UBE1; also recorded: unaffected	–	–	–
CCN1CCN(c2cc(C)nc3nc(CN4CCCCC4C)nn23)CC1 (centres unmarked) [CU2]	essentially abolished the ubiquitylation of GST-FANCLRING	did not affect ubiquitylation of either UBE2T or UBE1	unaffected	–	–
Cc1nnc(N(C)CC2CCN(CC(C)O)CC2)c(C#N)c1C (centres unmarked) [CU9]	essentially abolished the ubiquitylation of GST-FANCLRING	did not affect ubiquitylation of either UBE2T or UBE1	–	unaffected	–
NC(=O)[C@@H]1CCCN1C(=O)c1cc(-n2cccc2)ccc1Cl [CU12]	essentially abolished the ubiquitylation of GST-FANCLRING	prevented the ubiquitylation of UBE2T	–	–	essentially completely inhibited
